# Article PMC10066365, “Nemacol is a small molecule inhibitor of C. elegans vesicular acetylcholine transporter with anthelmintic potential” (Nature Communications, 2023)
# “And” between values parts separate entries of the source, which are not always exact repeats. Equal entries are not always repeated. Where two headings read alike, the source gives them in different places.
# Tests used:
# [1] = test system: Pristionchus pacificus; assay: Pristionchus pacificus motor disruption dose-response on solid media, 1 h; conditions: for EC50: Pristionchus pacificus, 1 h, read-out: P. pacificus motor disruption EC50; for mean % any phene: any phenotype (coiled, jerky-Unc or paralyzed) at one hour, mean of three biological replicates; for rep 1 atypical locomotion / rep 1 coiled / rep 1 no phene / rep 1 paralyzed / rep 2 atypical locomotion / rep 2 coiled / rep 2 no phene / rep 2 paralyzed / rep 3 atypical locomotion / rep 3 coiled / rep 3 no phene / rep 3 paralyzed: count of 20 animals per trial, one hour
# [2] = test system: Dirofilaria immitis L3/L4; assay: Dirofilaria immitis L3/L4 motility assay (DiroImager, 72 h); conditions: Dirofilaria immitis L4
# [3] = target: T1, rat VAChT (Rattus norvegicus, UniProt Q62666); assay: [3H]Vesamicol competitive radioligand binding, PC12 cells expressing ratVAChT
# T1 construct: expressed in transfected cells; host or cells: rat PC12 (PC12 A123.7) cells, stably transfected; shared by Dr. Ali Roghani (Texas Tech University)
# T1 sequence (Q62666 1-530): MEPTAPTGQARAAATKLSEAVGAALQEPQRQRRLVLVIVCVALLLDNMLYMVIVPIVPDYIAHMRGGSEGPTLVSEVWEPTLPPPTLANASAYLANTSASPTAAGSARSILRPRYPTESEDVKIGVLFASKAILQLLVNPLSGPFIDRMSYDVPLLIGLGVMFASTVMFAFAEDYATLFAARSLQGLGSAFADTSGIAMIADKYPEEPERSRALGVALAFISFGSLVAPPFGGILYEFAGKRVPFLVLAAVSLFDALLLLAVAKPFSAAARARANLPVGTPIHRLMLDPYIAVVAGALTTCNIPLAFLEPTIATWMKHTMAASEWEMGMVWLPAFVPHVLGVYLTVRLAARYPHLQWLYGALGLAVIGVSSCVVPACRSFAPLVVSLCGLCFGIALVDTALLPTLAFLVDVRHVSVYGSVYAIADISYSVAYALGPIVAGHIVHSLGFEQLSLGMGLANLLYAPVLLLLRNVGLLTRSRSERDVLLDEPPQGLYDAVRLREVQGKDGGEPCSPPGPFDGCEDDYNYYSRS
# [4] = test system: Dirofilaria immitis microfilariae; assay: Dirofilaria immitis microfilariae immobility assay (DiroImager, 72 h); conditions: Dirofilaria immitis microfilariae
# Procedure, shortened: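 About 250 freshly purified microfilariae of the Missouri isolate per well in supplemented RPMI 1640, exposed to compound for 72 h. Motility scored by automated whole-plate optical imaging; medium with 1% DMSO as negative control.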
# [5] = test system: C. elegans; assay: C. elegans motor phenotype scoring on solid media (Punc/jerky-unc, coiled, paralyzed), wild-type young adults; type: in vivo, Caenorhabditis elegans; conditions: for atypical locomotion (number of animals) / coiled (number of animals) / no phene (number of animals) / paralyzed (number of animals) / any phene: mean % fraction of young adults exhibiting any phenotype (coiled, jerky-Unc or paralyzed): one hour; for atypical locomotion (number of animals) / coiled (number of animals) / no phene (number of animals) / paralyzed (number of animals): young adults, 20 animals per trial, single technical replicate; for any phene: mean % fraction of young adults exhibiting any phenotype (coiled, jerky-Unc or paralyzed): mean of three biological replicates; for EC50: Caenorhabditis elegans, any motor phenotype after 1 h on solid media, ± 95% CI, read-out: C. elegans - motor disruption EC50
# [6] = [3H]Vesamicol binding, PC12, experiment 1, read-out: expt 1 Ki (M) vs. rat VAChT (PC12)
# [7] = [3H]Vesamicol binding, PC12, experiment 2, read-out: expt 2 Ki (M) vs. rat VAChT (PC12)
# [8] = [3H]Vesamicol binding, rat VAChT (PC12), mean of 2-3 experiments, read-out: mean Ki
# [9] = [3H]Vesamicol displacement, mean, read-out: ratVAChT Ki
compound,measurement,setting,value
c1ccc(N2CCN(C3CCCCCC3)CC2)cc1 [Nemacol-59],EC50,[1],> 60 µM
same,mean % any phene,[1]; conc 3.75,0%
same,rep 1 atypical locomotion,[1]; conc 3.75,0
same,rep 1 coiled,[1]; conc 3.75,0
same,rep 1 no phene,[1]; conc 3.75,20
same,rep 1 paralyzed,[1]; conc 3.75,0
same,rep 2 atypical locomotion,[1]; conc 3.75,0
same,rep 2 coiled,[1]; conc 3.75,0
same,rep 2 no phene,[1]; conc 3.75,20
same,rep 2 paralyzed,[1]; conc 3.75,0
same,rep 3 atypical locomotion,[1]; conc 3.75,0
same,rep 3 coiled,[1]; conc 3.75,0
same,rep 3 no phene,[1]; conc 3.75,20
same,rep 3 paralyzed,[1]; conc 3.75,0
same,mean % any phene,[1]; conc 15,0%
same,rep 1 atypical locomotion,[1]; conc 15,0
same,rep 1 coiled,[1]; conc 15,0
same,rep 1 no phene,[1]; conc 15,20
same,rep 1 paralyzed,[1]; conc 15,0
same,rep 2 atypical locomotion,[1]; conc 15,0
same,rep 2 coiled,[1]; conc 15,0
same,rep 2 no phene,[1]; conc 15,20
same,rep 2 paralyzed,[1]; conc 15,0
same,rep 3 atypical locomotion,[1]; conc 15,0
same,rep 3 coiled,[1]; conc 15,0
same,rep 3 no phene,[1]; conc 15,20
same,rep 3 paralyzed,[1]; conc 15,0
same,mean % any phene,[1]; conc 60,5.833%
same,rep 1 atypical locomotion,[1]; conc 60,4 and 2
same,rep 1 coiled,[1]; conc 60,0
same,rep 1 no phene,[1]; conc 60,16 and 18
same,rep 1 paralyzed,[1]; conc 60,0
same,rep 2 atypical locomotion,[1]; conc 60,0
same,rep 2 no phene,[1]; conc 60,19 and 20
same,rep 2 paralyzed,[1]; conc 60,0
same,rep 3 atypical locomotion,[1]; conc 60,0
same,rep 3 coiled,[1]; conc 60,0
same,rep 3 no phene,[1]; conc 60,20
same,rep 3 paralyzed,[1]; conc 60,0
same,"% effect (motility), DIROIM L4",[2]; 10 µM,30%
same,"% effect (motility), DIROIM L4",[2]; 50 µM,25%
same,Ki,[3]; [6],1.85e-06 M
same,Ki,[3]; [7],1.68e-06 M
same,Ki,[3]; [8],1.76e-06 M
same,Ki,[3]; [9],1.76e-06 M
same,"% effect (motility), DIROIM MF",[4]; 0.016 µM,0%
same,"% effect (motility), DIROIM MF",[4]; 0.08 µM,0%
same,"% effect (motility), DIROIM MF",[4]; 0.4 µM,0%
same,"% effect (motility), DIROIM MF",[4]; 2 µM,0%
same,"% effect (motility), DIROIM MF",[4]; 10 µM,0%
same,atypical locomotion (number of animals),[5]; 3.75uM,5 and 4 and 7 and 2
same,coiled (number of animals),[5]; 3.75uM,0
same,no phene (number of animals),[5]; 3.75uM,15 and 16 and 13
same,paralyzed (number of animals),[5]; 3.75uM,0 and 2
same,"any phene: mean % fraction of young adults exhibiting any phenotype (coiled, jerky-Unc or paralyzed)",[5]; 3.75uM,24.1667%
same,atypical locomotion (number of animals),[5]; 15uM,15 and 17 and 14 and 16 and 18
same,coiled (number of animals),[5]; 15uM,0 and 1 and 3 and 2
same,no phene (number of animals),[5]; 15uM,0 and 2
same,paralyzed (number of animals),[5]; 15uM,5 and 3 and 0
same,"any phene: mean % fraction of young adults exhibiting any phenotype (coiled, jerky-Unc or paralyzed)",[5]; 15uM,98.3333%
same,atypical locomotion (number of animals),[5]; 60uM,1 and 4 and 8 and 5 and 3
same,coiled (number of animals),[5]; 60uM,12 and 6 and 4 and 7
same,no phene (number of animals),[5]; 60uM,0
same,paralyzed (number of animals),[5]; 60uM,7 and 10 and 8 and 9 and 11
same,EC50,[5],5.1 ± 0.5 µM
c1ccc(N2CCN(CC3CCCC3)CC2)cc1 [Nemacol-62],EC50,[1],35.2 ± 7.5 µM
same,mean % any phene,[1]; conc 3.75,0%
same,rep 1 atypical locomotion,[1]; conc 3.75,0
same,rep 1 coiled,[1]; conc 3.75,0
same,rep 1 no phene,[1]; conc 3.75,20
same,rep 1 paralyzed,[1]; conc 3.75,0
same,rep 2 atypical locomotion,[1]; conc 3.75,0
same,rep 2 coiled,[1]; conc 3.75,0
same,rep 2 no phene,[1]; conc 3.75,20
same,rep 2 paralyzed,[1]; conc 3.75,0
same,rep 3 atypical locomotion,[1]; conc 3.75,0
same,rep 3 coiled,[1]; conc 3.75,0
same,rep 3 no phene,[1]; conc 3.75,20
same,rep 3 paralyzed,[1]; conc 3.75,0
same,mean % any phene,[1]; conc 15,3.333%
same,rep 1 coiled,[1]; conc 15,0
same,rep 1 no phene,[1]; conc 15,20 and 19
same,rep 1 paralyzed,[1]; conc 15,0
same,rep 2 atypical locomotion,[1]; conc 15,2 and 1
same,rep 2 coiled,[1]; conc 15,0
same,rep 2 no phene,[1]; conc 15,18 and 19
same,rep 2 paralyzed,[1]; conc 15,0
same,rep 3 atypical locomotion,[1]; conc 15,0
same,rep 3 coiled,[1]; conc 15,0
same,rep 3 no phene,[1]; conc 15,20
same,rep 3 paralyzed,[1]; conc 15,0
same,mean % any phene,[1]; conc 60,89.1667%
same,rep 1 atypical locomotion,[1]; conc 60,5 and 6
same,rep 1 paralyzed,[1]; conc 60,11 and 9
same,rep 2 atypical locomotion,[1]; conc 60,14 and 15
same,rep 2 coiled,[1]; conc 60,2 and 3
same,rep 2 no phene,[1]; conc 60,0
same,rep 2 paralyzed,[1]; conc 60,4 and 2
same,rep 3 atypical locomotion,[1]; conc 60,15 and 13
same,rep 3 no phene,[1]; conc 60,5 and 3
same,"% effect (motility), DIROIM L4",[2]; 10 µM,5%
same,"% effect (motility), DIROIM L4",[2]; 50 µM,11%
same,Ki,[3]; [6],2.34e-06 M
same,Ki,[3]; [7],3.34e-06 M
same,Ki,[3]; [8],2.84e-06 M
same,Ki,[3]; [9],2.84e-06 M
same,"% effect (motility), DIROIM MF",[4]; 0.016 µM,0%
same,"% effect (motility), DIROIM MF",[4]; 0.08 µM,0%
same,"% effect (motility), DIROIM MF",[4]; 0.4 µM,0%
same,"% effect (motility), DIROIM MF",[4]; 2 µM,0%
same,"% effect (motility), DIROIM MF",[4]; 10 µM,0%
same,atypical locomotion (number of animals),[5]; 3.75uM,0 and 2
same,coiled (number of animals),[5]; 3.75uM,0 and 1
same,no phene (number of animals),[5]; 3.75uM,20 and 17 and 18
same,paralyzed (number of animals),[5]; 3.75uM,0
same,"any phene: mean % fraction of young adults exhibiting any phenotype (coiled, jerky-Unc or paralyzed)",[5]; 3.75uM,4.167%
same,atypical locomotion (number of animals),[5]; 15uM,13 and 10 and 6 and 17
same,coiled (number of animals),[5]; 15uM,0 and 1 and 4 and 3
same,no phene (number of animals),[5]; 15uM,5 and 8 and 13 and 10 and 0
same,paralyzed (number of animals),[5]; 15uM,2 and 0 and 4
same,atypical locomotion (number of animals),[5]; 60uM,0 and 4 and 2 and 1
same,coiled (number of animals),[5]; 60uM,12 and 8 and 15 and 17 and 7 and 5
same,no phene (number of animals),[5]; 60uM,0
same,paralyzed (number of animals),[5]; 60uM,8 and 3 and 2 and 9 and 14
same,EC50,[5],11.2 ± 4.4 µM
